Source: patent publication US8691815B2, “Substituted oxindole derivatives, drugs containing said derivatives and the use thereof” (AbbVie Deutschland GmbH & Co. KG, priority 2005, dated 2014)
Where a name gives a salt, the structure may show the parent alone.

Target: T1, human vasopressin V1b receptor (Homo sapiens, UniProt P47901)
T1 construct: expressed in transfected cells; host or cells: CHO-K1 (cell line hV1b-3H2_CHO), membrane preparation
T1 sequence (P47901 1-424): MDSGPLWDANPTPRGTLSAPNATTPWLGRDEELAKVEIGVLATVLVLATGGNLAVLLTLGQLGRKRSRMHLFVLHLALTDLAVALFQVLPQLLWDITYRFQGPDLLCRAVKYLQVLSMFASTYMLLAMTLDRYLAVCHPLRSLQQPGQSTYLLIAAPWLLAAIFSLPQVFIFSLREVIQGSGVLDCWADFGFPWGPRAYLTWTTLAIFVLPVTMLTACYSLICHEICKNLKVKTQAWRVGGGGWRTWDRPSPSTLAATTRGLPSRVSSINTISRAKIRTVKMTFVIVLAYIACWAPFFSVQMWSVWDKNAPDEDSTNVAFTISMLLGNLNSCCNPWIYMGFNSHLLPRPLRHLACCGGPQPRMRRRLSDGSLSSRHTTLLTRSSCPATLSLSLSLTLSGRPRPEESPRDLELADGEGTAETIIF
Test: Vasopressin V1b receptor binding assay
Details: membranes from CHO-K1 cells with stably expressed human V1b receptors, displacement of 1.5 nM 3H-AVP
Protocol: Vasopressin V1b Receptor Binding Assay:
The test substances were dissolved in a concentration of 10^−2 M in DMSO (dimethyl sulfoxide) and further diluted to 5×10^−4 M to 5×10^−9 M in DMSO. This series of DMSO predilutions was diluted 1:10 with assay buffer. The substance concentration was again diluted 1:5 in the assay mixture (2% DMSO in the mixture).
The membrane pellet was again homogenized and centrifuged as described and then taken up in 50 mM Tris-HCl, pH 7.4, homogenized and stored in aliquots frozen in liquid nitrogen at −190° C.
The incubation buffer was: 50 mM Tris, 10 mM MgCl2, 0.1% BSA, pH 7.4.
The nonspecific binding was determined with 1 uM AVP (Bachem # H1780). All determinations were carried out as triplicate determinations. After incubation (60 minutes at room temperature), the free radioligand was removed by vacuum filtration (Skatron cell harvester 7000) through Whatman GF/B glass fiber filter mats, and the filters were transferred into scintillation vials. The liquid scintillation measurement took place in a Tricarb model 2000 or 2200CA instrument (Packard). Conversion of the measured cpm into dpm was carried out with the aid of a standard quench series.
The binding parameters were calculated by nonlinear regression in SAS.

**Q.** With COc1ccc(S(=O)(=O)N2C(=O)C(c3cc(CN(C)C)ccc3OC)(N3CCC[C@H]3C(=O)N(C)C)c3cc(Cl)ccc32)c(OC)c1 (stereo partly drawn) [Example 24, (S)-1-[5-Chloro-1-(2,4-dimethoxybenzenesulfonyl)-3-(5-dimethylaminomethyl-2-methoxyphenyl)-2-oxo-2,3-dihydro-1H-indol-3-yl]pyrrolidine-2-dimethylcarboxamide, trifluoroacetic acid salt] as the compound, how does the Ki read?
**A.** Its Ki is < 1 nM.

**Q.** For COc1ccc(S(=O)(=O)N2C(=O)C(c3cc(CN4CCCC4)ccc3OC)(N3CCC[C@H]3C(=O)N(C)C)c3cc(Cl)ccc32)c(OC)c1 (stereo partly drawn) [Example 25, (S)-1-[5-Chloro-1-(2,4-dimethoxybenzenesulfonyl)-3-(2-methoxy-5-pyrrolidin-1-yl-methylphenyl)-2-oxo-2,3-dihydro-1H-indol-3-yl]pyrrolidine-2-dimethylcarboxamide, trifluoroacetic acid salt], which Ki is on record?
**A.** The Ki was < 1 nM.

**Q.** COc1ccc(S(=O)(=O)N2C(=O)C(c3cc(CN4CCCCC4)ccc3OC)(N3CCC[C@H]3C(=O)N(C)C)c3cc(Cl)ccc32)c(OC)c1 (stereo partly drawn) [Example 26, (S)-1-[5-Chloro-1-(2,4-dimethoxybenzenesulfonyl)-3-(2-methoxy-5-piperidin-1-yl-methylphenyl)-2-oxo-2,3-dihydro-1H-indol-3-yl]pyrrolidin-2-dimethylcarboxamide trifluoroacetic acid salt] was tested. Which Ki did it give?
**A.** Its Ki is < 1 nM.

**Q.** Which Ki does the source give for COc1ccc(S(=O)(=O)N2C(=O)C(c3cc(CN4CCN(C)CC4)ccc3OC)(N3CCC[C@H]3C(=O)N(C)C)c3cc(Cl)ccc32)c(OC)c1 (stereo partly drawn) [Example 27, (S)-1-{5-Chloro-1-(2,4-dimethoxybenzenesulfonyl)-3-[2-methoxy-5-(4-methyl-piperazin-1-ylmethyl)phenyl]-2-oxo-2,3-dihydro-1H-indol-3-yl}pyrrolidine-2-dimethylcarboxamide, trifluoroacetic acid salt] here?
**A.** The Ki was < 1 nM.

**Q.** With COc1ccc(S(=O)(=O)N2C(=O)C(c3cc(CN4CCOCC4)ccc3OC)(N3CCC[C@H]3C(=O)N(C)C)c3cc(Cl)ccc32)c(OC)c1 (stereo partly drawn) [Example 28, (S)-1-[5-Chloro-1-(2,4-dimethoxybenzenesulfonyl)-3-(2-methoxy-5-morpholin-4-yl-methylphenyl)-2-oxo-2,3-dihydro-1H-indol-3-yl]pyrrolidine-2-dimethylcarboxamide, trifluoroacetic acid salt] as the compound, how does the Ki read?
**A.** Its Ki is 1 to 10 nM.

**Q.** With COc1ccc(S(=O)(=O)N2C(=O)C(c3cc(CN(C)CCN(C)C)ccc3OC)(N3CCC[C@H]3C(=O)N(C)C)c3cc(Cl)ccc32)c(OC)c1 (stereo partly drawn) [Example 29, (S)-1-[5-Chloro-1-(2,4-dimethoxybenzenesulfonyl)-3-(5-{[(2-dimethylaminoethyl)-methylamino]methyl}-2-methoxyphenyl)-2-oxo-2,3-dihydro-1H-indol-3-yl]pyrrolidine-2-dimethylcarboxamide, trifluoroacetic acid salt] as the compound, how does the Ki read?
**A.** The Ki was < 1 nM.

**Q.** Which Ki does the source give for COc1ccc(S(=O)(=O)N2C(=O)C(c3cc(CN(C)CCCN(C)C)ccc3OC)(N3CCC[C@H]3C(=O)N(C)C)c3cc(Cl)ccc32)c(OC)c1 (stereo partly drawn) [Example 30, (S)-1-[5-Chloro-1-(2,4-dimethoxybenzenesulfonyl)-3-(5-{[(3-dimethylaminopropyl)-methylamino]methyl}-2-methoxyphenyl)-2-oxo-2,3-dihydro-1H-indol-3-yl]pyrrolidine-2-dimethylcarboxamide, trifluoroacetic acid salt] here?
**A.** Its Ki is < 1 nM.

**Q.** For COCCN(C)Cc1ccc(C2(N3CCC[C@H]3C(=O)N(C)C)C(=O)N(S(=O)(=O)c3ccc(OC)cc3OC)c3ccc(Cl)cc32)c(OC)c1 (stereo partly drawn) [Example 31, (S)-1-[5-Chloro-1-(2,4-dimethoxybenzenesulfonyl)-3-(2-methoxy-4-{[(2-methoxy-ethyl)methylamino]methyl}phenyl)-2-oxo-2,3-dihydro-1H-indol-3-yl]pyrrolidine-2-dimethylcarboxamide], which Ki is on record?
**A.** The Ki was 1 to 10 nM.
